Row | SMILES | melting point [°C]
1 | O=C1CCC(N2Cc3c(OCc4ccc5nc(CN6CCOCC6)cn5c4)cccc3C2=O)C(=O)N1 (stereo unspecified) | 278 to 280
2 | COc1ccccc1NC(=O)Nc1nc(N2CCC(O)CC2)nc(N(CCC(=O)O)Cc2ccc(Cl)c(Cl)c2)n1 | 121 to 124
3 | CC[C@H]1[C@H](O)C2(CC2)C(=O)N1c1ccc(C#N)c(C(F)(F)F)c1 | 106 to 110
4 | C#CCn1c2c(c(=O)n(-c3ccc(Cl)c(C(=O)OCC)c3)c1=O)CCC2 | 121 to 123
5 | Cc1ccc2nc(NC(=O)c3ccc(C(C)(C)CCC(=O)O)cc3)cn2c1 | 280 to 282
6 | Cc1cc2nc(C)n(COC(=O)C(C)(C)C)c(=O)c2cc1CBr | 149 to 152
7 | CC(=O)Oc1ccc2c(c1)C[C@H]1CCCN(C(C)=O)[C@H]1C2 (relative stereo) | 108 to 113
8 | CCCCC#Cc1cc2c(cc1Br)C(C)(C)CCC2(C)C | 59 to 63
9 | COc1cc(COc2nn(-c3ccccc3)cc2C=O)ccc1OCc1nc(N2CCOCC2)sc1C | 149 to 150
10 | Nc1nc2ccc(OCC(F)(F)C(F)(F)F)cc2s1 | 147
11 | COc1ccc(C(O)(Cc2ccncc2)c2cccs2)cc1OC1CCCC1 (stereo unspecified) | 57 to 67
12 | Cc1cc(-c2ccc(NC(=O)CCN3CCC(c4ccccc4)CC3)cc2)n[nH]c1=O | 239 to 240
13 | O=C1C=C(NC(=O)C(=O)c2cn(Cc3cccc(Br)c3)c3ccccc23)CO1 | 278 to 280
14 | O=C(Nc1ccc(-n2nc(C(F)(F)F)cc2C(F)(F)F)cc1)c1cncc(Br)c1 | 155 to 157
15 | NC(=O)CN1CCN(c2cccccc2=O)CC1 | 169 to 171
16 | C=CCC1(CC=C)c2cc(-c3ncncn3)ccc2-c2ccc(N(c3ccccc3)c3ccccc3)cc21 | 235 to 237
17 | COc1cc2cccc3c2c(n1)-c1ccccc1C3=O | 190 to 192
18 | CC(=O)Nc1nc(Cl)c2ncn(COC(COC(C)=O)COC(C)=O)c2n1 | 139 to 140
19 | Cc1cc(OCc2ccccc2)ccc1CC#N | 51 to 52
20 | COc1ccc(P2Oc3ccccc3-c3ccccc32)cc1 (stereo unspecified) | 104 to 106
21 | Cc1ccc(-c2c(-c3ccc(S(N)(=O)=O)cc3)[nH]c3ccccc23)cc1 | 293 to 295
22 | COC(=O)C=C1SC(Nc2c(Cl)cccc2Cl)=NC1=O | 189 to 190
23 | CC(=O)Nc1cc(C(F)(F)F)ccc1-c1cc(Oc2ccc3cccnc3c2)ncn1 | 137 to 138
24 | CC(Cl)(Cl)C(NC(=O)c1ccc(Cl)cc1)NC(=NC#N)Nc1ccc(C(F)(F)F)nc1 (stereo unspecified) | 204 to 205
25 | COCC(=O)Nc1c(C(=O)c2cccc(C)c2)[nH]c2ccc([N+](=O)[O-])cc12 | 155 to 157
26 | CC(C)(C)OC(=O)N[C@H]1CCc2ccc(OCCCC(=O)O)cc2C1 | 150 to 153

Row | SMILES | melting point [°C]
27 | CC(C)[C@H]1OC[C@H](Nc2nnc(Cc3ccc(O)nc3)c3ccccc23)CO1 | 108 to 109
28 | O=C(O)CCCCC(=O)c1ccc2cc(O)ccc2c1 | 191 to 193
29 | COC(=O)c1cc(C)nn1-c1ncc(Cl)cc1Cl | 97 to 98
30 | O=C(O)COc1c(I)cc(C(=O)c2cccs2)cc1I | 160
31 | CC(C)n1nc(-c2cnc(N)nc2-c2ccc(C(F)(F)F)cc2)ccc1=O | 209 to 210
32 | O=C(O)c1ccc2c(c1)C(=O)C(c1nc3ccccc3cc1O)C2=O (stereo unspecified) | > 350
33 | O=[N+]([O-])c1nccn1CC(F)CO (stereo unspecified) | 84 to 89
34 | CC[C@@H]1CN(c2c(F)c(N)c3c(=O)c(C(=O)O)cn(C4CC4)c3c2OC)CC[C@H]1O (relative stereo) | 217 to 219
35 | CC(=O)C=Cc1ccc2sccc2c1 | 75
36 | COc1ccc2cccc(C(CCO)CNC(=O)C3CCC3)c2c1 (stereo unspecified) | 113 to 115
37 | C=CCc1[nH]cc(C#N)c1-c1ccc(Cl)cc1C(=O)c1ccccc1F | 142 to 144
38 | Cc1c(OCC(F)(F)F)ccnc1CS(=O)c1nc2ccccc2n1N (stereo unspecified) | 111 to 113
39 | COc1cc(Cc2cnc(N)nc2N)cc(Br)c1OC | 204 to 205
40 | Cc1ccccc1Sc1cccc2c1OC(=O)C2 | 108 to 109
41 | CS(=O)(=O)c1ccc(Oc2ccc(Cl)cc2)cc1 | 109 to 111
42 | CON(c1ccc([N+](=O)[O-])cc1C#N)S(=O)(=O)c1ccc(Cl)c(C(F)(F)F)c1 | 140 to 142
43 | COc1nc2ncccc2c2nc(S(=O)(=O)Nc3c(Cl)cccc3Cl)nn12 | 290 to 293
44 | CCOc1cc(C=C2SC(=S)N(N(C)C)C2=O)ccc1O | 194 to 198
45 | Cc1cc(Cl)c2cc(O)ccc2n1 | 233
46 | CCOC(=O)C1=C(N2CCCC2)N=C(C)C(C(C)=O)C1c1cccc([N+](=O)[O-])c1 (stereo unspecified) | 130
47 | CC(=O)O[C@H]1CC[C@H](c2ccc(I)cc2)CC1 | 84.4 to 85.4
48 | CC(C)n1c(C(=O)Cl)c(-c2ccc(F)cc2)c2ccccc2c1=O | 132 to 134
49 | Cc1cccc(-c2c(O)c3ccc(Cl)cc3[nH]c2=O)c1 | > 350
50 | Cc1cc2c(c(OCC(=O)c3ccc(C(C)C)cc3)c1)CCC2 | 68 to 69
51 | COc1cccc(CN=C(Cc2ccccc2)N2CC3C(=O)CCC(c4ccccc4)(c4ccccc4)C3C2)c1 (stereo unspecified) | 127
52 | Clc1cc2nnnn2c2cnccc12 | 176 to 177

Row | SMILES | melting point [°C]
53 | NC[C@H]1CCc2[nH]c3ccc(F)cc3c2C1 | 121 to 123
54 | COC(=O)Cc1nc(-c2ccc(OC)cc2)c(-c2ccc(OC)cc2)s1 | 79 to 81.5
55 | COc1ccc(C2C(C(=O)/C=C/c3ccccc3)C(=O)CC(c3ccccc3)C2[N+](=O)[O-])cc1 (stereo unspecified) | 108 to 110
56 | O=C(Nc1ccccn1)c1ccc(OC(F)F)c2oc3ccc(C(F)(F)F)cc3c12 | 169 to 170
57 | CCCCCc1cccc2c1C(=O)N(OC1C(O)C(CO)OC1n1cnc3c(N)ncnc31)C2=O (stereo unspecified) | 159 to 160
58 | Cc1cc(C(C)C)cc(C)c1CO | 75 to 77
59 | CS(=O)c1c(N)nc(N)nc1Cl (stereo unspecified) | 126 to 128
60 | O=C(CBr)c1ccc(Br)s1 | 79
61 | Cc1cc(Cc2cc3cc(C(F)(F)F)ccc3n2S(=O)(=O)c2cccc(C(C)(C)C)c2)c(F)cc1C(=O)O | 195
62 | N=C(N=C1NC(=O)C(=O)N1c1ccc(Cl)c(Cl)c1)Nc1ccc(Cl)c(Cl)c1 | 220
63 | Cc1c(C(=O)O)cnn1-c1ccc(F)cc1F | 183 to 184
64 | COc1cc(OC)nc(C(C)c2ccccc2N)n1 (stereo unspecified) | 136 to 139
65 | NC(=O)CC(O)CCCCCNC(=O)OCc1ccccc1 (stereo unspecified) | 100 to 101
66 | CC(C)Oc1ccc(Cc2ccc(NC3=NCCN3)cc2)s1 | 134 to 135
67 | COc1ccc(C(=O)Nc2ccccc2)cc1Nc1cccc(Cl)c1 | 168 to 170
68 | CC(C)(C)OC(=O)C(NN)C(=O)O (stereo unspecified) | 144 to 146
69 | CCN1Cn2c(=O)cc(-c3cccc(C(F)(F)F)c3)n3cnc(c23)C1=O | 278 to 280
70 | Cc1ccc(N(c2ccc(C)cc2)c2c(C)cc(-c3cc(C)c(N(c4ccc(C)cc4)c4ccc5ccc6cccc7ccc4c5c67)c(C)c3)cc2C)cc1 | 198 to 199
71 | Cc1cccc(-c2[nH]c(C(C)C)nc2-c2cccc(-c3cccs3)c2)n1 | 73 to 76
72 | COc1ccc(S(=O)(=O)C2(C(=O)O)CCN(C)CC2)cc1 | 204
73 | NCC1Cc2cccc(Nc3cc(Cl)cc(Cl)c3)c2O1 (stereo unspecified) | > 250
74 | COc1ccc(C(=O)Cc2c(Cl)cncc2Cl)c2c1OC(C)(C)C2 | 127 to 131
75 | Cc1ccc(NCc2ccc[nH]2)cc1O | 115 to 117
76 | C#CCCCCOc1ccc(/C=C/C(=O)Nc2ccccc2C(=O)O)cc1OC | 148 to 150
77 | OCCC1(c2ccccc2)CCNCC1 | 120
78 | CCCC(=O)Nc1n[nH]c2cc(-c3ccc(OC)cc3)ccc12 | 210

Row | SMILES | melting point [°C]
79 | COc1ccc(-c2ccncc2OC2SCC(OC(C)=O)C(OC(C)=O)C2OC(C)=O)cc1 (stereo unspecified) | 193
80 | CN(C)c1ccc2nnc(-c3ncc([N+](=O)[O-])n3C)n2n1 | 233 to 236
81 | CCOC(=O)C(C#N)NC(=O)OCc1ccccc1 (stereo unspecified) | 111 to 112
82 | CCC12CCC3=C(CCc4cc(OC)ccc43)C1CCC21OCCO1 (stereo unspecified) | 135 to 137
83 | OC12CC3CC(CC(C3)C1=C1C3CC4CC(C3)CC1C4)C2 | 212 to 213
84 | CC(C)(C)C(O)(CC#CBr)C(Oc1ccc(Cl)cc1)n1cncn1 (stereo unspecified) | 156 to 160
85 | O=C(c1cc2ccc(F)cc2[nH]1)C12CC3CC(CC(C3)C1)C2 | 242 to 244
86 | O=C(O)Cc1cc(OCc2ccccc2)ccc1OCc1ccccc1 | 95.5 to 100
87 | Cc1cccc(C)c1NCCNCC(O)COc1ccc(F)cc1 (stereo unspecified) | 105 to 106
88 | CC(C)N1C(=O)C(C)(C)N=C(c2ccccc2Cl)c2cc(N)ccc21 | 243 to 244
89 | CCCn1nc2c(N)nc3ccccc3c2c1CC(C)(C)NS(C)(=O)=O | 130 to 139
90 | COc1ccc(C2Sc3ccccc3N(CCN(C)C)C(=O)C2OC(=O)c2ccccc2[N+](=O)[O-])cc1 (stereo unspecified) | 161 to 162
91 | COC(=O)CN(C)c1nc(-c2ccc(-c3ccccc3)cc2)c(C(=O)OC)s1 | 141
92 | CC(=O)OC1(C)CCC2C(C)(C)CCCC2(C)C1CCC(C)(O)C1CO1 (stereo unspecified) | 130 to 131
93 | Nc1cc(Cl)ccc1C(=O)c1cccc(O)c1 | 137 to 138
94 | CSc1nn2c(N3CCN(CCO)CC3)cc(C)nc2c1S(=O)(=O)c1ccccc1 | 189 to 190
95 | c1ccc(N2CCN(CCc3cc4ccccc4[nH]3)CC2)cc1 | 184 to 186
96 | O=C(O)c1cnn2c1NC(c1ccccc1)CC2C(F)(F)F (stereo unspecified) | 185
97 | CC12CCC(=O)C=C1CCC1C2CCC2(C)C(C(=O)C3CCCCC3)CCC12 (stereo unspecified) | 159 to 161
98 | Cc1nc2c(O)cc(C(=O)N(C)C)cc2n1C | 248
99 | CCOC(=O)c1c(CCc2ccccc2)nc2c(cnn2CC)c1O | 153 to 155
100 | OCc1cccc(OCc2ccc3ccccc3n2)c1 | 70
101 | CC12CCC3C(CC=C4CC(O)CCC43CSSCCO)C1CCC2=O (stereo unspecified) | 129 to 130

— a melting point compilation (Tetko et al.; mined from patent text by program, amines drawn as free bases though some values may be those of a salt)
